SMILES strings stand for the structures. Counter-ions that a name gives are not always drawn. Like-named read-outs stand apart in the source and are kept apart here.

The target of one experiment is huSTING (HAQ) (Homo sapiens (Human), UniProt Q86WV6, G230A/H232R/R293Q/R71H). As to the kind of experiment: THP-1 reporter cell line assay, THP-1 STING Lucia ISG cells. Type of experiment: cell-based. Particulars: THP-1 STING Lucia ISG cells, read-out: Cellular EC50 huSTING (HAQ).
Another experiment addresses huSTING (WT) (Homo sapiens (Human), UniProt Q86WV6, H232R). Nature of the experiment: THP-1 reporter cell line assay, THP-1-Dual KI-hSTING-R232 cells. Type of experiment: cell-based. Particulars: read-out: Cellular EC50 huSTING (WT).
[1] abbreviates: modified method, top concentration 40 μM, pin tool, EnVision.

Sequence of huSTING (WT) (Q86WV6 whole entry H232R): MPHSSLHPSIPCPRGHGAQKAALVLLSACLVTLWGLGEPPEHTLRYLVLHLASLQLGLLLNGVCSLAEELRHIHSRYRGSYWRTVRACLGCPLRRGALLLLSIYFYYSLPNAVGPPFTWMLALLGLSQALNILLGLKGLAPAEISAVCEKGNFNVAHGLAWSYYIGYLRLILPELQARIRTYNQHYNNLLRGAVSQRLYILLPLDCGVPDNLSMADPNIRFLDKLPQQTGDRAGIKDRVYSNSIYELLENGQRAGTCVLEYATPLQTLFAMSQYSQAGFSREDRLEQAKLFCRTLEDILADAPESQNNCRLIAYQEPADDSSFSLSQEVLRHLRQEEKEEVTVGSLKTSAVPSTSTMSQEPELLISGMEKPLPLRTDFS
Sequence of huSTING (HAQ) (Q86WV6 whole entry R71H/G230A/H232R/R293Q): as the sequence (Q86WV6 whole entry H232R) above, with R71H, G230A, R293Q counted along it

What is called EC50 is the midpoint of the concentration-response curve. `CC(C)[C@H](NC(=O)OC(C)(C)C)C(=O)OCOC(=O)c1sc2cccc(Cl)c2c1COc1c(F)cc(C(N)=O)cc1F` [Example 133, (((tert-Butoxycarbonyl)-L-valyl)oxy)methyl 3-((4-carbamoyl-2,6-difluorophenoxy)methyl)-4-chlorobenzo[b]thiophene-2-carboxylate]: the EC50 turned out to be 120 nM at huSTING (HAQ) (setting [1]) and 806 nM at huSTING (WT).

Take `CCOC(=O)c1sc2c(F)ccc(F)c2c1COc1c(F)cc(C(N)=O)cc1F` [Example 79, Ethyl 3-((4-carbamoyl-2,6-difluorophenoxy)methyl)-4,7-difluorobenzo[b]thiophene-2-carboxylate]: the EC50 at huSTING (HAQ) (24 h, top concentration 50 μM) came out at 170 nM; on huSTING (WT), 474 nM.

With `NC(=O)c1ccc(OCc2c(C(=O)NCc3ccccc3)sc3cccc(Br)c23)cc1` [Example 166, N-Benzyl-4-bromo-3-((4-carbamoylphenoxy)methyl)benzo[b]thiophene-2-carboxamide], the EC50 turned out to be 9950 nM at huSTING (HAQ) (setting [1]) and 28900 nM at huSTING (WT).

For `CCOC(=O)c1sc2cccc(C3CC3)c2c1COc1ccc(C(N)=O)cc1` [Example 60, Ethyl 3-((4-carbamoylphenoxy)methyl)-4-cyclopropylbenzo[b]thiophene-2-carboxylate], the EC50 at huSTING (HAQ) (24 h, top concentration 50 μM) was found to be 827 nM; on huSTING (WT), 47400 nM.

Consider `CCOC(=O)c1sc2cccc(F)c2c1COc1ccc(C(N)=O)c(C(F)(F)F)c1` [Example 51, Ethyl 3-((4-carbamoyl-3-(trifluoromethyl)phenoxy)methyl)-4-fluorobenzo[b]thiophene-2-carboxylate], for which the EC50 on huSTING (HAQ) (24 h, top concentration 50 μM) is greater than 50000 nM; at huSTING (WT), greater than 50000 nM.

For `CC(C)(C)C(=O)OCOC(=O)c1sc2cccc(Cl)c2c1COc1c(F)cc(C(N)=O)cc1F` [Example 173, (Pivaloyloxy)methyl 3-((4-carbamoyl-2,6-difluorophenoxy)methyl)-4-chlorobenzo[b]thiophene-2-carboxylate], the EC50 at huSTING (HAQ) (setting [1]) came out at 55 nM; at huSTING (WT), 208 nM.

With `CCOC(=O)c1sc2c(C)ccc(Cl)c2c1COc1c(F)cc(C(N)=O)cc1F` [Example 144, Ethyl 3-((4-carbamoyl-2,6-difluorophenoxy)methyl)-4-chloro-7-methylbenzo[b]thiophene-2-carboxylate], the results for the EC50 on huSTING (HAQ) (setting [1]) and at huSTING (WT) were 23 nM and 925 nM, respectively.

Regarding `CC(C)[C@H](N)C(=O)OCOC(=O)c1sc2cccc(Cl)c2c1COc1c(F)cc(C(N)=O)cc1F` [Example 152, ((L-Valyl)oxy)methyl 3-((4-carbamoyl-2,6-difluorophenoxy)methyl)-4-chlorobenzo[b]thiophene-2-carboxylate trifluoroacetate salt], the EC50 on huSTING (HAQ) (setting [1]) turned out to be 967 nM; on huSTING (WT), 53700 nM.

As to `CC(C)OC(=O)OC(C)OC(=O)c1sc2cccc(Cl)c2c1COc1c(F)cc(C(N)=O)cc1F` (centres unmarked) [Example 132, 1-((Isopropoxycarbonyl)oxy)ethyl 3-((4-carbamoyl-2,6-difluorophenoxy)methyl)-4-chlorobenzo[b]thiophene-2-carboxylate], the EC50 at huSTING (HAQ) (setting [1]) turned out to be 97 nM; on huSTING (WT), 916 nM.

On to `CC(C)(C)C(=O)OCOC(=O)c1sc2cccc(C3CC3)c2c1COc1c(F)cc(C(N)=O)cc1F` [Example 124, (Pivaloyloxy)methyl 3-((4-carbamoyl-2,6-difluorophenoxy)methyl)-4-cyclopropylbenzo[b]thiophene-2-carboxylate], for which the half-maximal effective concentration (EC50) on huSTING (HAQ) (setting [1]) was 278 nM; on huSTING (WT) it was 1430 nM.

As to `CCOC(=O)c1sc2cccc(Cl)c2c1COc1cc(F)c(C(N)=O)c(F)c1` [Example 27, Ethyl 3-((4-carbamoyl-3,5-difluorophenoxy)methyl)-4-chlorobenzo[b]thiophene-2-carboxylate], the EC50 is greater than 50000 nM on huSTING (HAQ) (24 h, top concentration 50 μM) and greater than 50000 nM at huSTING (WT).

Regarding `CCOC(=O)c1sc2cccc(Cl)c2c1COc1c(F)cc(C(N)=O)cc1F` [Example 68, Ethyl 3-((4-carbamoyl-2,6-difluorophenoxy)methyl)-4-chlorobenzo[b]thiophene-2-carboxylate], the EC50 on huSTING (HAQ) (24 h, top concentration 50 μM) was 260 nM; at huSTING (WT) it was 1630 nM.

As for `CCOC(=O)c1sc2c(F)ccc(Cl)c2c1COc1c(F)cc(C(N)=O)cc1F` [Example 92, Ethyl 3-((4-carbamoyl-2,6-difluorophenoxy)methyl)-4-chloro-7-fluorobenzo[b]thiophene-2-carboxylate], the results for the EC50 on huSTING (HAQ) (setting [1]) and on huSTING (WT) were 50 nM and 163 nM, respectively.

`CCOC(=O)c1sc2cccc(Cl)c2c1COc1ccc2c(N)noc2c1` [Example 47, Ethyl 3-(((3-aminobenzo[d]isoxazol-6-yl)oxy)methyl)-4-chlorobenzo[b]thiophene-2-carboxylate]: the EC50 at huSTING (HAQ) (24 h, top concentration 50 μM) is 18700 nM; at huSTING (WT) it was greater than 50000 nM.

As to `CCOC(=O)c1sc2c(COC)ccc(Cl)c2c1COc1c(F)cc(C(N)=O)cc1F` [Example 146, Ethyl 3-((4-carbamoyl-2,6-difluorophenoxy)methyl)-4-chloro-7-(methoxymethyl)benzo[b]thiophene-2-carboxylate], the EC50 at huSTING (HAQ) (setting [1]) was 41 nM; on huSTING (WT), 2150 nM.

Take `CCOC(=O)c1sc2cccc(C#N)c2c1COc1ccc(C(N)=O)cc1` [Example 62, Ethyl 3-((4-carbamoylphenoxy)methyl)-4-cyanobenzo[b]thiophene-2-carboxylate]: the EC50 on huSTING (HAQ) (24 h, top concentration 50 μM) is 950 nM; at huSTING (WT) it was 1650 nM.

`COC(=O)N1CCC(OC(=O)c2sc3cccc(Cl)c3c2COc2c(F)cc(C(N)=O)cc2F)CC1` [Example 163, Methyl 4-((3-((4-carbamoyl-2,6-difluorophenoxy)methyl)-4-chlorobenzo[b]thiophene-2-carbonyl)oxy)piperidine-1-carboxylate]: the EC50 on huSTING (HAQ) (setting [1]) was 62 nM; at huSTING (WT) it was 1560 nM.

For `COc1cccc2sc(C(=O)OCOC(=O)C(C)(C)C)c(COc3c(F)cc(C(N)=O)cc3F)c12` [Example 123, (Pivaloyloxy)methyl 3-((4-carbamoyl-2,6-difluorophenoxy)methyl)-4-methoxybenzo[b]thiophene-2-carboxylate], the EC50 at huSTING (HAQ) (setting [1]) worked out at 49 nM; on huSTING (WT), 335 nM.

Take `CCOC(=O)c1sc2ccc(C)c(Cl)c2c1COc1ccc(C(N)=O)cc1` [Example 17, Ethyl 3-((4-carbamoylphenoxy)methyl)-4-chloro-5-methylbenzo[b]thiophene-2-carboxylate]: the EC50 at huSTING (HAQ) (24 h, top concentration 50 μM) is 14800 nM; at huSTING (WT), greater than 50000 nM.

As for `CCOC(=O)c1sc2cccc(Cl)c2c1COc1ccc(C(N)=O)cc1OC` [Example 29, Ethyl 3-((4-carbamoyl-2-methoxyphenoxy)methyl)-4-chlorobenzo[b]thiophene-2-carboxylate], the 50% effective concentration (EC50) was 2680 nM at huSTING (HAQ) (24 h, top concentration 50 μM) and 6500 nM at huSTING (WT).

With `CCOC(=O)c1sc2cccc(COC)c2c1COc1c(F)cc(C(N)=O)cc1F` [Example 115, Ethyl 3-((4-carbamoyl-2,6-difluorophenoxy)methyl)-4-(methoxymethyl)benzo[b]thiophene-2-carboxylate], the values for the EC50 on huSTING (HAQ) (setting [1]) and at huSTING (WT) were 635 nM and 1510 nM, respectively.

Take `CCOC(=O)c1sc2cccc(OC)c2c1COc1ccc(C(N)=O)cc1` [Example 33, Ethyl 3-((4-carbamoylphenoxy)methyl)-4-methoxybenzo[b]thiophene-2-carboxylate]: the half-maximal effective concentration (EC50) was 665 nM at huSTING (HAQ) (24 h, top concentration 50 μM) and 891 nM at huSTING (WT).

Turning to `CC(C)(C)C(=O)OCOC(=O)c1sc2c(F)ccc(Br)c2c1COc1c(F)cc(C(N)=O)cc1F` [Example 131], the EC50 turned out to be 44 nM at huSTING (HAQ) (setting [1]) and 57 nM on huSTING (WT).

For the compound `CCOC(=O)c1sc2cccc(F)c2c1COc1c(F)cc(C(N)=O)cc1Br` [Example 55, Ethyl 3-((2-bromo-4-carbamoyl-6-fluorophenoxy)methyl)-4-fluorobenzo[b]thiophene-2-carboxylate], the EC50 at huSTING (HAQ) (24 h, top concentration 50 μM) is 3600 nM; on huSTING (WT), greater than 50000 nM.

As for `CCOC(=O)c1sc2cccc(C(F)(F)F)c2c1COc1ccc(C(N)=O)cc1` [Example 35, Ethyl 3-((4-carbamoylphenoxy)methyl)-4-(trifluoromethyl)benzo[b]thiophene-2-carboxylate], the EC50 worked out at 655 nM on huSTING (HAQ) (24 h, top concentration 50 μM) and 1280 nM on huSTING (WT).

With `CCOC(=O)c1sc2ccnc(OC)c2c1COc1c(F)cc(C(N)=O)cc1F` [Example 102, Ethyl 3-((4-carbamoyl-2,6-difluorophenoxy)methyl)-4-methoxythieno[3,2-c]pyridine-2-carboxylate], the EC50 at huSTING (HAQ) (setting [1]) was found to be 53 nM; on huSTING (WT), 377 nM.

As for `CCOC(=O)c1sc2cccc(Cl)c2c1COc1ccc(C(N)=O)c(-c2cn[nH]c2)c1` [Example 151, Ethyl 3-((4-carbamoyl-3-(1H-pyrazol-4-yl)phenoxy)methyl)-4-chlorobenzo[b]thiophene-2-carboxylate], the EC50 turned out to be 1820 nM at huSTING (HAQ) (setting [1]) and 3460 nM at huSTING (WT).

In the case of `CCOC(=O)c1sc2cccc(Cl)c2c1COc1ccc(C(N)=O)nc1` [Example 45, Ethyl 3-(((6-carbamoylpyridin-3-yl)oxy)methyl)-4-chlorobenzo[b]thiophene-2-carboxylate], the EC50 came to 12900 nM on huSTING (HAQ) (24 h, top concentration 50 μM) and 24700 nM at huSTING (WT).

With `CCOC(=O)c1sc2cccc(Cl)c2c1COc1ccc(C(N)=O)c(COC)c1` [Example 150, Ethyl 3-((4-carbamoyl-3-(methoxymethyl)phenoxy)methyl)-4-chlorobenzo[b]thiophene-2-carboxylate], the EC50 on huSTING (HAQ) (setting [1]) stood at 550 nM; at huSTING (WT), 489 nM.

Take `COc1cccc2sc(C(=O)OCc3ccccc3)c(COc3ccc(C(N)=O)cc3)c12` [Example 156, Benzyl 3-((4-carbamoylphenoxy)methyl)-4-methoxybenzo[b]thiophene-2-carboxylate]: the EC50 was found to be 628 nM on huSTING (HAQ) (setting [1]) and 4510 nM on huSTING (WT).

Turning to `CCOC(=O)c1sc2ccnc(Cl)c2c1COc1c(F)cc(C(N)=O)cc1F` [Example 91, Ethyl 3-((4-carbamoyl-2,6-difluorophenoxy)methyl)-4-chlorothieno[3,2-c]pyridine-2-carboxylate], the EC50 came to 270 nM on huSTING (HAQ) (setting [1]) and 862 nM at huSTING (WT).

These data come from patent US11613525B2 (CTXT PTY LIMITED, priority 2018, dated 2023).
